Laboratory results taken from patent US11464749B2, “Bismuth-thiol compositions and methods of use” (Microbion Corporation, priority 2018, dated 2022).
In brackets after ≈: the same amount, converted by molar mass. Several values for one entry are separate records, joined by “and”; a condition that tells them apart may be missing. Identical values can stand only once. Like-named read-outs stand apart in the source and are kept apart here.

Legend:
[1] = system: B. cepacia (cepacia complex); assay: MIC against CF bacterial strains (Example 5); assay type: cell-based; conditions: Burkholderia cepacia
Procedure: (§1) A range of CF-isolated strains of Mycobacterium avium and Mycobacterium abscessus were included; which allows for understanding of the activity against non-tubercular Mycobacteria (NTM). Two distinct bismuth-thiol compounds were evaluated, including BisEDT and BisBDT. […] The CF-isolates of greater clinical relevance, including both M abscessus spp. and Burkholderia spp., were both consistently found to be much more susceptible to BisEDT and BisBDT.

[2] = system: B. cepcacia complex (not further speciated); assay: MIC against CF bacterial strains (Example 5); assay type: cell-based; conditions: beta lactam-S, TMP/SMX-S
Procedure: as §1

[3] = system: B. dolosa (cepacia complex); assay: MIC against CF bacterial strains (Example 5); assay type: cell-based; conditions: Burkholderia dolosa; strain BC 11, CF isolate, beta lactam-R, TMP/SMX-S, FQ-R
Procedure: as §1

[4] = system: B. multivorans (cepacia complex); assay: MIC against CF bacterial strains (Example 5); assay type: cell-based; conditions: Burkholderia multivorans
Procedure: as §1

[5] = system: M. abscessus complex; assay: MIC against CF bacterial strains (Example 5); assay type: cell-based, Mycobacterium abscessus; conditions: Mycobacteroides abscessus
Procedure: as §1

[6] = system: C. glabrata; assay: Broth microdilution MIC, yeast (Example 11); assay type: cell-based; conditions: Nakaseomyces glabratus, FLU^R
[7] = system: S. aureus ATCC 29213; conditions: control strain ATCC 29213; per CLSI M100-S24 or provided by Microbion; cited from earlier work
[8] = system: P. aeruginosa and A. baumannii; assay: Broth microdilution MIC (Example 11); conditions: read-out: MIC values
[9] = system: Pseudomonas aeruginosa; assay: Broth microdilution MIC (Example 11); conditions: Pseudomonas aeruginosa
[10] = system: S. aureus ATCC 29213; assay: Broth microdilution MIC, ATCC QC organism (Example 12); conditions: Staphylococcus aureus, ATCC29213
[11] = system: B. cenocepacia; assay: FIC checkerboard assay; assay type: cell-based; conditions: for FICB: FIC of Meropenem in combination with BisEDT; for FICB / MICB: per checkerboard row; for MICB: MIC of Meropenem in combination with BisEDT
[12] = system: P. aeruginosa; assay: Broth microdilution MIC (Example 10); conditions: initial MIC testing
[13] = system: Pseudomonas aeruginosa; conditions: P. aeruginosa MMX 103 (ATCC 27853); CLSI QC ranges shown in parenthesis; cited from earlier work
[14] = Aerosol testing of BisEDT suspension formulations (aerosol concentration, particle size); assay type: physicochemical; conditions: Lot # ED268-1-11-01; 25 mg/mL formulation
From the text: Objective: The objective of this study was to develop methods for the nose-only inhalation exposures of BisEDT for rodents. The aerosols were generated from suspension formulations of BisEDT in aqueous media (0.5% TWEEN 80® in Sodium Phosphate Buffer, pH 7.4). […] Suspension formulations were created by sonication with neat API with 0.5% TWEEN 80® in Sodium Phosphate Buffer, pH 7.4. This was further refined by adjusting the vehicle to an osmolality of 300 mOsmol/kg. Aerosols were characterized for particle size distribution and aerosol concentration. Aerosol concentration was determined by differential mass and chemical analysis of the aerosol filter samples.
Aerosol Methods: Formulation—Suspension formulations of BisEDT were prepared in 0.5% TWEEN 80® in Sodium Phosphate Buffer, pH 7.4. Suspensions of 2.5, 10, 25, 50, 75 and 100 mg/mL were prepared by sonication with a Covaris sonicator. In later tests, the vehicle was adjusted with sodium chloride to achieve an Osmolality of 300 mOsmol/kg. Suspensions were prepared at 2.5, 50, and 100 mg/mL.
Aerosol concentration was measured at the breathing zone of the exposure system by collection of the aerosol onto 47-mm filters (Whatman GF/A membrane filters). Filter samples were collected at a nominal flowrate of 0.3 L/min. Aerosol mass concentration was determined by differential weight analysis of the filter samples. […]

[15] = Phase 1 human clinical studies, topical tolerability; assay type: in vivo; conditions: humans
[16] = system: E. coli ATCC 25922; conditions: control strain ATCC 25922; per CLSI M100-S24 or provided by Microbion; cited from earlier work
[17] = system: P. aeruginosa; conditions: P. aeruginosa isolate 103; CLSI QC range shown in parenthesis; cited from earlier work
[18] = ATCC27853, P. aeruginosa MMX 103 (ATCC 27853), QC
[19] = P. aeruginosa MMX 1381, MDR, Lev^R, Cip^R, MEM^R, CAZ^R
[20] = P. aeruginosa MMX 2562, MDR, Lev^R, Cip^R, MEM^R, CAZ^R
[21] = P. aeruginosa MMX 3991, MDR, Lev^R, Cip^R, MEM^R, CAZ^R
[22] = P. aeruginosa MMX 4654, IMP-7, Lev^R, Cip^R, MEM^R, CAZ^R
[23] = P. aeruginosa MMX 4697, VIM-2, Lev^R, Cip^R, MEM^R, CAZ^R

CC(S)C(C)S.[Bi] (centres unmarked) [BisBDT, bismuth-2,3-butanedithiol]
MIC ([1]; strain BC17): 8 µg/mL
MIC ([1]; strain BC 17, CF isolate, beta lactam-R, TMP/SMX-R, FQ-R): 4 µg/mL
MIC ([2]; strain BC 9, CF isolate, FQ-R): 0.5 µg/mL
MIC ([2]; strain PC 213, CF isolate, FQ-S): 1 µg/mL
MIC [3]: 0.5 µg/mL
MIC ([4]; strain BC 5, CF isolate, beta lactam-S, TMP/SMX-S, FQ-I): 2 µg/mL
MIC ([4]; strain BC5b): 1 µg/mL
MIC ([5]; AMT0068-40, M abscessus/massiliense complex, read-out: MIC): 0.06 µg/mL
MIC ([5]; AMT 0068-40, MABSC CF isolate, macrolide-S, amikacin-I): 0.125 µg/mL
MIC ([5]; AMT 0089-5, MABSC CF isolate, macrolide-R, amikacin-R): 0.125 µg/mL
MIC ([5]; AMT0119-7, M abscessus/massiliense complex, read-out: MIC): < 0.03 µg/mL
MIC ([5]; AMT 0119-7, MABSC CF isolate, macrolide-S, amikacin-I): 0.125 µg/mL
MIC ([5]; AMT0130-8, M abscessus/massiliense complex, read-out: MIC): < 0.03 µg/mL
MIC ([5]; AMT 0130-8, MABSC CF isolate, macrolide-S, amikacin-I, read-out: MIC): 0.0625 µg/mL
MIC ([5]; AMT 0136-10, MABSC CF isolate, macrolide-R, amikacin-R, read-out: MIC): 0.0625 µg/mL
MIC ([5]; AMT153-9, M abscessus/massiliense complex, read-out: MIC): < 0.03 µg/mL
MIC ([5]; AMT 0153-9, MABSC CF isolate, macrolide-S, amikacin-I): 0.125 µg/mL
MIC ([5]; AMT 0157-14, MABSC CF isolate, macrolide-R, amikacin-I): 0.125 µg/mL
MIC ([5]; AMT 0166-29, MABSC CF isolate, macrolide-R, amikacin-R): 0.125 µg/mL
MIC ([5]; AMT0493-2, M abscessus/massiliense complex, Amikacin resistant, read-out: MIC): 0.125 µg/mL
MIC ([5]; AMT 0493-2, MABSC CF isolate, macrolide-S, amikacin-R): 0.5 µg/mL
MIC ([5]; ATCC19977, ATCC 19977, M abscessus/massiliense complex, Macrolide resistant (inducible), read-out: MIC): < 0.03 µg/mL
MIC ([5]; ATCC19977, ATCC 19977, M. abscessus abscessus, ATCC type strain, read-out: MIC): 0.25 µg/mL
MIC ([6]; 24 h, C. glabrata MMX 7086): 0.5 µg/mL
MIC ([6]; 24 h, C. glabrata MMX 7318): 0.25 µg/mL
MIC ([6]; 48 h, C. glabrata MMX 7086): 1 µg/mL
MIC ([6]; 48 h, C. glabrata MMX 7318): 0.5 µg/mL
Expected MIC: goal (acceptable range) [7]: 0.25 mcg/mL and 0.25 (0.12-0.5) mcg/mL
MIC [8]: 0.5 to 2 µg/mL
MIC [9, 18]: 1 µg/mL
MIC [9, 19]: 1 µg/mL
MIC [9, 20]: 2 µg/mL
MIC [9, 21]: 2 µg/mL
MIC [9, 22]: 2 µg/mL
MIC [9, 23]: 2 µg/mL
MIC [10]: 0.12 µg/mL

C[C@@H](O)[C@H]1C(=O)N2C(C(=O)O)=C(S[C@@H]3CN[C@H](C(=O)N(C)C)C3)[C@H](C)[C@H]12 [MEM]
MIC ([11]; during FIC testing, B. cenocepacia isolate 0548 (CIP-R)): 4 µg/mL
MIC ([11]; during FIC testing, B. cenocepacia isolate 0813 (CIP-I)): 2 µg/mL
MIC ([12]; P. aeruginosa isolate 103): 1 µg/mL (≈ 2.61 µM)
MIC ([12]; P. aeruginosa isolate 1497 (TOB-R, AMK-R, CIP-I, AZT-R, COL-R)): 0.06 µg/mL (≈ 0.156 µM)
MIC ([12]; P. aeruginosa isolate 1530 (TOB-R, AMK-R, CIP-R)): 0.5 µg/mL (≈ 1.3 µM)
MIC ([12]; P. aeruginosa isolate 1553 (TOB-R, AMK-R, CIP-R)): 0.5 µg/mL (≈ 1.3 µM)
MIC ([12]; P. aeruginosa isolate 6322 (MEM-R, TOB-R, AMK-R, CIP-R, AZT-R)): 16 µg/mL (≈ 41.7 µM)
MIC ([12]; P. aeruginosa isolate 6977 (MEM-I, TOB-R, CIP-R, AZT-I)): 4 µg/mL (≈ 10.4 µM)
MIC ([12]; P. aeruginosa isolate 7745 (MEM-R, CIP-R, AZT-R)): 16 µg/mL (≈ 41.7 µM)
MIC ([12]; P. aeruginosa isolate 7754 (MEM-R, TOB-R, CIP-R, AZT-I)): 32 µg/mL (≈ 83.4 µM)
MIC ([12]; P. aeruginosa isolate 7762 (MEM-I, CIP-I)): 4 µg/mL (≈ 10.4 µM)
MIC ([12]; P. aeruginosa isolate 7871 (MEM-R, AZT-I)): 8 µg/mL (≈ 20.9 µM)
MIC ([12]; P. aeruginosa isolate 7874): 1 µg/mL (≈ 2.61 µM)
MIC ([12]; P. aeruginosa isolate 7886 (MEM-R, CIP-R, AZT-R)): 32 µg/mL (≈ 83.4 µM)
MIC ([12]; P. aeruginosa isolate 8797 (MEM-R, TOB-R, AMK-R, CIP-R, AZT-R, COL-R)): 32 µg/mL (≈ 83.4 µM)
MIC ([12]; P. aeruginosa isolate 8798 (MEM-R, TOB-R, AMK-R, CIP-R, AZT-R, COL-R)): 64 µg/mL (≈ 167 µM)
MIC ([12]; P. aeruginosa isolate 9108 (CIP-R, AZT-I)): 0.5 µg/mL (≈ 1.3 µM)

C[C@@H](O)[C@H]1C(=O)N2C(C(=O)O)=C(S[C@@H]3CN[C@H](C(=O)N(C)C)C3)[C@H](C)[C@H]12 [Meropenem, reference compound]
FICB ([11]; B. cenocepacia 548): 0.5 and 1
MICB ([11]; B. cenocepacia 548): 2 µg/mL and 4 µg/mL
FICB ([11]; B. cenocepacia 813): 0.5 and 1
MICB ([11]; B. cenocepacia 813): 1 µg/mL and 2 µg/mL
MIC ([11]; Burkholderia cenocepacia, B. cenocepacia 548, Meropenem alone (panel with BisEDT), read-out: Drug B MIC): 4 µg/mL
MIC ([11]; Burkholderia cenocepacia, B. cenocepacia 813, Meropenem alone (panel with BisEDT), read-out: Drug B MIC): 2 µg/mL
CLSI QC range of MIC [13]: (0.25-1) μg/mL
MIC [9, 18]: 0.5 µg/mL (≈ 1.3 µM)
MIC [9, 19]: 16 µg/mL (≈ 41.7 µM)
MIC [9, 20]: 32 µg/mL (≈ 83.4 µM)
MIC [9, 21]: 16 µg/mL (≈ 41.7 µM)
MIC [9, 22]: > 64 µg/mL
MIC [9, 23]: 8 µg/mL (≈ 20.9 µM)

C1C[S][Bi]([S]CC[S][Bi]2[S]CC[S]2)[S]1 [BisEDT, bismuth-1,2-ethanedithiol]
BisEDT Aerosol Conc., average of all extracted concentrations incl. outlier filter [14]: 64.4 µg/L
concentration well-tolerated when administered topically ([15]; 6 hours): up to 2500 μg/cm^2
concentration tolerated when administered topically ([15]; over 21 days continuous exposure, normal and abraded skin): up to 75 μg/cm^2
Expected MIC: goal (acceptable range) [16]: 1 (0.5-2) mcg/mL
MIC, CLSI QC range [17]: (0.5-4) μg/mL
